{"source": "Sander's compilation of Henry's law constants (doi:10.1021/es00169a013)", "origin": "cited, not measured here"}
{"test": "Henry solubility constant Hcp at 298.15 K (mol/(m3 Pa))", "conditions": "reference: Dunnivant et al. (1988); cited value"}
{"compound": "Clc1cc(Cl)c(-c2cc(Cl)c(Cl)cc2Cl)cc1Cl", "note": "[2,2',4,4',5,5'-hexachlorobiphenyl]", "Henry solubility constant Hcp": 0.08}
{"compound": "Clc1cc(Cl)c(-c2c(Cl)cc(Cl)cc2Cl)c(Cl)c1", "note": "[2,2',4,4',6,6'-hexachlorobiphenyl]", "Henry solubility constant Hcp": 0.086}
{"compound": "Clc1cccc(Cl)c1-c1c(Cl)cccc1Cl", "note": "[2,2',6,6'-tetrachlorobiphenyl]", "Henry solubility constant Hcp": 0.067}
{"compound": "Clc1ccc(-c2ccc(Cl)cc2)cc1", "note": "[4,4'-dichlorobiphenyl]", "Henry solubility constant Hcp": 0.068}
